From patent US5849755A, “3-amidochromanylsulfonyl(thio)ureas, processes for their preparation, their use, and pharmaceutical preparations comprising them” (Hoechst Aktiengesellschaft, priority 1996, dated 1998)

Assays:
RINm5F cells = assay: Test 2: Membrane potential on isolated β cells (RINm5F, whole cell patch clamp); format: cell-based; details: diazoxide 100 μmol/l in bath, 34°±1° C.
Description: Test 2: Membrane potential on isolated β cells The action mechanism of hypoglycemic sulfonylureas is understood in principle. The β cells of the pancreas are the target organ of sulfonylureas, where they bring about a release of the hypoglycemic hormone insulin by influencing the electrical potential of the cell membrane. A hypoglycemic sulfonylurea, for example glibenclamide, has the effect of depolarizing the cell membrane, which leads to an increased inflow of calcium ions and, as a consequence thereof, to the release of insulin. The extent AU of this depolarization of the cell membrane caused by the substances according to the invention was determined on insulin-secreting RINm5F cells, a pancreas tumor cell line. The activity of a compound in this model predicts the extent of the hypoglycemic potential of this compound. Cell cultures of RINm5F cells: RINm5F cells were cultured at 37° C. in RPMI 1640 culture medium (Flow) to which 11 mM glucose, 10% (volume/volume) fetal calf serum, 2 mM glutamine and 50 μg/ml of gentamycin were added. The cells were sown on Petri dishes every 2 to 3 days and kept at a temperature of 37° C. in a moistened atmosphere of […] and 5% CO2. For the investigations, the cells were isolated by incubation (about 3 minutes) in a Ca^2+ -free medium which comprised 0.25% trypsin. Measurement method: Isolated RINm5F cells were introduced into a Plexiglas chamber on an inverse microscope which was equipped with a differential interference contrast lens. Under visual control (400-fold magnification),a fire-polished micropipette with an opening diameter of about 1 μm was placed on the cell with the aid of a micromanipulator. By applying a slight reduced pressure to the inside of the patch pipette, a high electrical seal was initially established between the glass and the cell membrane. By increasing the reduced pressure, the membrane patch under the […] pipette was then broken open. In this whole cell configuration,the cell potential was recorded with the aid of a patch clamp amplifier (L/M EPC 7, List, Darmstadt) and the whole cell current was measured by applying a voltage ramp. […] Stock solutions (concentration 100 mmol/l) of the test substances in dimethyl sulfoxide (DMSO) and corresponding dilutions in NaCl solution were prepared. DMSO alone had no effect on the cell potential. To stabilize the cell potential, diazoxide (100 μmol/l), an opener of ATP-sensitive K^+ channels, was added to the bath solution in all experiments. All experiments were carried out at 34°±1° C. The following values ΔU (changes in the cell potentials caused by the addition of the test substances) were measured. The control values in parentheses are the cell potentials U before the addition of the test substances. For comparison the values obtained in this test with glibenclamide, a typical hypoglycemic benzenesulfonylurea, are given.

[1] = test system: papillary muscle of the guinea pig; assay: Test 1: Duration of the action potential of the papillary muscle of the guinea pig (APD95, shortened by HOE 234); format: cell-based; details: HOE 234 1 μg/ml in bath, 30 minutes after addition, mean of n = 3, control with HOE 234 alone <40
Description: Test 1: Duration of the action potential of the papillary muscle of the guinea pig
ATP deficiency states such as are observed in the cardiac muscle cell during ischemia lead to a shortening of the duration of the action potential. They are regarded as one of the causes of so-called "re-entry arrhythmias," which can cause sudden cardiac death. The opening of ATP-sensitive potassium channels as a result of the fall in ATP is regarded as the cause of this.
A standard microelectrode technique was employed to measure the action potential. For this, guinea pigs of both sexes were sacrificed by a blow to the head, the hearts were removed and the papillary muscles were separated out and suspended in an organ bath. The organ bath was flushed with Ringer's solution (0.9% NaCl, 0.048% KCl, 0.024% CaCl2, 0.02% NaHCO3 and 0.1% glucose) and gassed with a mixture of 95% oxygen and 5% carbon dioxide at a temperature of 36° C. The muscle was stimulated via an electrode with rectangular pulses of 1 V and 1 ms duration and a frequency of 2 Hz. The action potential was derived through a glass microelectrode which was inserted intracellularly and filled with 3M KCl solution, and recorded. The substances to be tested were added to the Ringer's solution in a concentration of 2×10^-6 mol per liter or 2×10^-5 mol per liter. The action potential was amplified with a Hugo Sachs amplifier and shown on an oscilloscope. The duration of the action potential in milliseconds (ms) was determined at a degree of repolarization of 95% (APD95). Shortenings of the action potential were induced by addition of a solution of the potassium channel opener HOE 234 (Rilmakalim) (W. Linz, E. Klaus, U. Albus, R. H. A. Becker, D. Mania, H. C. Englert, B. A. Scholkens, Arzneimittelforschung/Drug Research, Volume 42 (II), 1992, 1180-1185), a concentration of HOE 234 in the bath solution of 1 μg/ml being established. The test substances were added to the bath solution as stock solutions in propanediol. The values stated are based on measurements 30 minutes after the addition. As a control, the APD95 value was determined in the presence of HOE 234 and in the absence of the test substance.
The measurement values (mean values from n experiments) are followed by the corresponding blank values in parentheses. The blank values are the APD95 values which were measured at the start of the experiment without HOE 234 and test substance in the Ringer's solution. The values obtained show the normalizing effect of the compounds according to the invention on a shortened duration of the action potential.

Row | Compound | ΔU (mV), change in the cell potential caused by the addition of the test substance (RINm5F cells; 1 μmol/l) [mV] | ΔU (mV), change in the cell potential caused by the addition of the test substance (RINm5F cells; 10 μmol/l) [mV] | APD95 -HOE 234 ([1]; test substance 20 μmol/l) [ms] | APD95 -HOE 234 ([1]; test substance 2 μmol/l) [ms]
1 | CNC(=O)NS(=O)(=O)c1cc2c(cc1OC)OCC(NC(=O)c1cc(Cl)ccc1OC)C2 (stereo not shown) [Example 1, 3-(5-Chloro-2-methoxybenzamido)-6-(methylaminocarbonylaminosulfonyl)-7-methoxychroman] | 6 | 24 | 157 ± 36 | 
2 | CCCNC(=O)NS(=O)(=O)c1cc2c(cc1OC)OCC(NC(=O)c1cc(Cl)ccc1OC)C2 (stereo not shown) [Example 3, 3-(5-Chloro-2-methoxybenzamido)-6-(n-propylamino-carbonylaminosulfonyl)-7-methoxychroman] | 18 | 23 | 134 ± 9 | 
3 | CNC(=S)NS(=O)(=O)c1cc2c(cc1OC)OCC(NC(=O)c1cc(Cl)ccc1OC)C2 (stereo not shown) [Example 6] | 3 |  |  | 145 ± 19.1
4 | CCNC(=S)NS(=O)(=O)c1cc2c(cc1OC)OCC(NC(=O)c1cc(Cl)ccc1OC)C2 (stereo not shown) [Example 7, 3-(5-Chloro-2-methoxybenzamido)-6-(ethylaminothiocarbonylaminosulfonyl)-7-methoxychroman] | 29 |  |  | 130 ± 28.1
5 | COc1ccc(F)cc1C(=O)NC1Cc2cc(S(=O)(=O)NC(=S)NC(C)C)c(OC)cc2OC1(C)C (stereo not shown) [Example 21, 3-(5-Fluoro-2-methoxybenzamido)-2,2-dimethyl-6-(isopropylaminothiocarbonylaminosulfonyl)-7-methoxychroman] |  |  |  | 67 ± 10
6 | COc1ccc(Cl)cc1C(=O)NCCc1ccc(S(=O)(=O)NC(=O)NC2CCCCC2)cc1 [Glibenclamide, glibenclamide, reference compound] | 47 | 46 |  | 
